36 molecules from US6911469B2, “Sulfonamide compounds and pharmaceutical use thereof” (Fujisawa Pharmaceutical Co., Ltd., priority 1997, dated 2005) can be followed below.

For `CCCCS(=O)(=O)NC(=O)c1ccc2c(c1)CN(Cc1ccc(Cl)cc1Cl)C(C)=N2.Cl`, the melting point is 258 °C (dec.).

Molecule `CCCCCS(=O)(=O)NC(=O)c1ccc2c(c1)N(Cc1ccc(Cl)cc1Cl)C(C)=NC2.Cl` came in with a melting point of 184 to 186 °C.

On to `CCCCCS(=O)(=O)NC(=O)c1ccc2sc(C)c(Cc3ccc(Cl)c(Cl)c3)c2c1` [Example 1, 3-(3,4-dichlorobenzyl)-2-methyl-5-(n-pentanesulfonyl-carbamoyl)benzo[b]thiophene], for which the melting point lay in the range of 159 to 160 °C.

For `CCCCCS(=O)(=O)NC(=O)c1ccc2sc(C)c(Cc3cccc(Cl)c3Cl)c2c1` [Example 2, 3-(2,3-dichlorobenzyl)-2-methyl-5-(n-pentanesulfonylcarbamoyl)benzo[b]thiophene], the melting point fell in the range of 196 to 197 °C.

Regarding `CCCCCS(=O)(=O)NC(=O)c1ccc2sc(C)c(Cc3cc(Cl)ccc3Cl)c2c1` [Example 3, 3-(2,5-dichlorobenzyl)-2-methyl-5-(n-pentanesulfonylcarbamoyl)benzo[b]thiophene], the melting point is 147 to 148 °C.

On to `CCCCCS(=O)(=O)NC(=O)c1ccc2nc(C)n(Cc3ccc(Cl)cc3Cl)c2n1` [Example 8-1, 3-(2,4-dichlorobenzyl)-2-methyl-5-(n-pentanesulfonylcarbamoyl)-3H-imidazo[4,5-b]pyridine], for which the melting point is 174 to 175 °C.

Regarding `CCCCS(=O)(=O)NC(=O)c1ccc2nc(C)n(Cc3ccc(Cl)cc3Cl)c2n1` [Example 8-2, 5-(n-butanesulfonylcarbamoyl)-3-(2,4-dichlorobenzyl)-2-methyl-3H-imidazo[4,5-b]pyridine], the melting point is 153 to 154 °C.

`Cc1nc2ccc(C(=O)NS(=O)(=O)c3ccccc3)nc2n1Cc1ccc(Cl)cc1Cl` [Example 8-3, 5-benzenesulfonylcarbamoyl-3-(2,4-dichlorobenzyl)-2-methyl-3H-imidazo[4,5-b]pyridine] registered a melting point of 193 to 194 °C.

In turn, `CCCCCS(=O)(=O)NC(=O)c1ccc2nc(C)n(Cc3ccc(-c4ccccc4)cc3Cl)c2n1` [Example 9, 3-(2-chloro-4-phenylbenzyl)-2-methyl-5-(n-pentanesulfonylcarbamoyl)-3H-imidazo[4,5-b]pyridine] had a melting point of 155 to 156 °C.

`CCCCCS(=O)(=O)NC(=O)c1ccc2nc(C)n(Cc3ccc4ccccc4c3Br)c2n1` [Example 10, 3-(1-bromo-2-naphthyl)methyl-2-methyl-5-(n-pentanesulfonylcarbamoyl)-3H-imidazo[4,5-b]pyridine] showed a melting point of 200 to 201 °C.

For the molecule `CCCCCS(=O)(=O)NC(=O)c1ccc2nc(C)n(Cc3ccc(-c4ccccc4)cc3)c2n1` [Example 11, 2-methyl-5-(n-pentanesulfonyl-carbamoyl)-3-(4-phenylbenzyl)-3H-imidazo[4,5-b]pyridine], the melting point lay within 170 to 171 °C.

Molecule `CCCCCS(=O)(=O)NC(=O)c1ccc2nc(C)n(Cc3ccc(Br)cc3Cl)c2n1` [Example 12-1, 3-(4-bromo-2-chlorobenzyl)-2-methyl-5-(n-pentanesulfonylcarbamoyl)-3H-imidazo[4,5-b]pyridine] had a melting point of 183 to 184 °C.

Turning to `CCCCS(=O)(=O)NC(=O)c1ccc2nc(C)n(Cc3ccc(Br)cc3Cl)c2n1` [Example 12-2, 3-(4-bromo-2-chlorobenzyl)-5-(n-butanesulfonylcarbamoyl)-2-methyl-3H-imidazo[4,5-b]pyridine], the melting point fell in the range of 165 to 166 °C.

In turn, `Cc1nc2ccc(C(=O)NS(=O)(=O)c3ccccc3)nc2n1Cc1ccc(Br)cc1Cl` [Example 12-3, 5-(benzenesulfonylcarbamoyl)-3-(4-bromo-2-chlorobenzyl)-2-methyl-3H-imidazo[4,5-b]pyridine] came in with a melting point of 193 to 194 °C.

`CCCCCS(=O)(=O)NC(=O)c1ccc2nc(C)n(Cc3ccc(Cl)cc3Br)c2n1` [Example 13-1, 3-(2-bromo-4-chlorobenzyl)-2-methyl-5-(n-pentanesulfonylcarbamoyl)-3H-imidazo[4,5-b]pyridine] had a melting point of 167 to 168 °C.

Regarding `Cc1nc2ccc(C(=O)NS(=O)(=O)c3ccccc3)nc2n1Cc1ccc(Cl)cc1Br` [Example 13-2, 5-(benzenesulfonylcarbamoyl)-3-(2-bromo-4-chlorobenzyl)-2-methyl-3H-imidazo[4,5-b]pyridine], the melting point was 189 to 190 °C.

Molecule `CCCCS(=O)(=O)NC(=O)c1ccc2nc(C)n(Cc3ccc(Cl)cc3Br)c2n1` [Example 13-3, 3-(2-bromo-4-chlorobenzyl)-5-(n-butanesulfonylcarbamoyl)-2-methyl-3H-imidazo[4,5-b]pyridine] came in with a melting point of 145 to 146 °C.

`CCCCCS(=O)(=O)NC(=O)c1cc(C)c2nc(CC)n(Cc3ccc(Cl)cc3Cl)c2n1` [Example 15, 3-(2,4-dichlorobenzyl)-2-ethyl-7-methyl-5-(n-pentanesulfonylcarbamoyl)-3H-imidazo[4,5-b]pyridine] showed a melting point of 178 to 180 °C.

As to `CCCCCS(=O)(=O)NC(=O)c1cc(C)c2nc(CC)n(Cc3ccc(-c4ccccc4)cc3)c2n1` [Example 16, 2-ethyl-7-methyl-5-(n-pentanesulfonylcarbamoyl)-3-(4-phenylbenzyl)-3H-imidazo[4,5-b]pyridine], the melting point fell in the range of 210 to 211 °C.

`CCCCCS(=O)(=O)NC(=O)c1cnc2nc(C)n(Cc3ccc(Cl)cc3Cl)c2c1` [Example 25, 1-(2,4-dichlorobenzyl)-2-methyl-6-(n-pentanesulfonylcarbamoyl)-1H-imidazo[4,5-b]pyridine]: the melting point is 103 to 106 °C.

Take `CCCCCS(=O)(=O)NC(=O)c1ccc2[nH]c(C)c(Cc3ccc(Cl)cc3Cl)c2n1` [Example 26-1, 3-(2,4-dichlorobenzyl)-2-methyl-5-(n-pentanesulfonylcarbamoyl)pyrrolo[3,2-b]pyridine]: the melting point was 147 to 148 °C.

As for `Cc1[nH]c2ccc(C(=O)NS(=O)(=O)c3ccccc3)nc2c1Cc1ccc(Cl)cc1Cl` [Example 26-2, 3-(2,4-dichlorobenzyl)-2-methyl-5-(benzenesulfonylcarbamoyl)pyrrolo[3,2-b]pyridine], the melting point was above 250 °C.

For the molecule `CCCCCS(=O)(=O)NC(=O)c1ccc2nc(C)n(Cc3ccc(Cl)cc3OC)c2n1` [Example 27, 3-(4-chloro-2-methoxybenzyl)-2-methyl-5-(n-pentanesulfonylcarbamoyl)-3H-imidazo[4,5-b]pyridine], the melting point was 168 to 170 °C.

The molecule `CCCCCS(=O)(=O)NC(=O)c1ccc2nc(C)n(Cc3ccc(Cl)cc3C)c2n1` [Example 28-1, 3-(4-chloro-2-methylbenzyl)-2-methyl-5-(n-pentanesulfonylcarbamoyl)-3H-imidazo[4,5-b]pyridine] came in with a melting point of 155 to 157 °C.

The molecule `Cc1cc(Cl)ccc1Cn1c(C)nc2ccc(C(=O)NS(=O)(=O)c3ccccc3)nc21` [Example 28-2, 5-benzenesulfonylcarbamoyl-3-(4-chloro-2-methylbenzyl)-2-methyl-3H-imidazo[4,5-b]pyridine] came in with a melting point of 235 to 237 °C.

Regarding `Cc1nc2ccc(C(=O)NS(=O)(=O)c3ccccc3)nc2n1Cc1ccc(-c2ccccc2)cc1Cl` [Example 29-1, 5-benzenesulfonylcarbamoyl-3-(2-chloro-4-phenylbenzyl)-2-methyl-3H-imidazo[4,5-b]pyridine], the melting point fell in the range of 204 to 214 °C.

The molecule `CCCCS(=O)(=O)NC(=O)c1ccc2nc(C)n(Cc3ccc(-c4ccccc4)cc3Cl)c2n1` [Example 29-2, 5-(n-butanesulfonylcarbamoyl)-3-(2-chloro-4-phenylbenzyl)-2-methyl-3H-imidazo[4,5-b]pyridine] came in with a melting point of 199 to 200 °C.

Take `Cc1oc2ccc(C(=O)NS(=O)(=O)c3ccccc3)cc2c1Cc1ccc(Cl)cc1Cl` [Example 30-2, 5-(benzenesulfonylcarbamoyl)-3-(2,4-dichlorobenzyl)-2-methylbenzo[b]furan]: the melting point lay in the range of 208.5 to 209.5 °C.

With `CCCCCS(=O)(=O)NC(=O)c1cc(C)cc2c(C)c(Cc3ccc(Cl)cc3Cl)oc12` [Example 31-1, 2-(2,4-dichlorobenzyl)-3,5-dimethyl-7-(1-n-pentanesulfonylcarbamoyl)benzo[b]furan], the melting point was 164 to 165.5 °C.

`Cc1cc(C(=O)NS(=O)(=O)c2ccccc2)c2oc(Cc3ccc(Cl)cc3Cl)c(C)c2c1` [Example 31-2, 7-(benzenesulfonylcarbamoyl)-2-(2,4-dichlorobenzyl)-3,5-dimethylbenzo[b]furan] registered a melting point of 214 to 215 °C.

With `CCCCCS(=O)(=O)NC(=O)c1ccc2sc(C)c(Cc3ccc(Cl)cc3Cl)c2c1` [Example 37, 3-(2,4-dichlorobenzyl)-2-methyl-5-(1-n-pentanesulfonylcarbamoyl)benzo[b]thiophene], the melting point lay in the range of 158.5 to 159.3 °C.

Molecule `CCCCCS(=O)(=O)NC(=O)c1cccc2c(CC)c(Cc3ccc(Cl)cc3Cl)sc12` [Example 38-1, 2-(2,4-dichlorobenzyl)-3-ethyl-7-(1-n-pentanesulfonylcarbamoyl)benzo[b]thiophene] had a melting point of 176 to 178 °C.

Regarding `CCc1c(Cc2ccc(Cl)cc2Cl)sc2c(C(=O)NS(=O)(=O)c3ccccc3)cccc12` [Example 38-2, 7-(benzenesulfonylcarbamoyl)-2-(2,4-dichlorobenzyl)-3-ethylbenzo[b]thiophene], the melting point was 181 to 183 °C.

In turn, `CCCCS(=O)(=O)NC(=O)c1ccc2c(c1)n(Cc1ccc(Cl)cc1Cl)c(=O)n2C` [Example 39, 6-(1-n-butanesulfonylcarbamoyl)-1-(2,4-dichlorobenzyl)-3-methyl-2-benzimidazolone] returned a melting point of 358 to 360 °C.

The molecule `CCCCS(=O)(=O)NC(=O)c1ccc2nnn(Cc3ccc(Cl)cc3Cl)c2c1` [Example 40, 6-(1-n-butanesulfonyl-carbamoyl)-1-(2,4-dichlorobenzyl)benzotriazole] came in with a melting point of 158 to 160 °C.

`CCCCS(=O)(=O)NC(=O)c1ccc2c(=O)n(CC)c(=O)n(Cc3ccc(Cl)cc3Cl)c2c1` [Example 42, 7-(1-n-butanesulfonyl-carbamoyl)-1-(2,4-dichlorobenzyl)-3-ethyl-2,4(1H,3H)-quinazolinedione] gave a melting point of 212 to 214 °C.
